1 compound from US11643405B2, “Compound for treatment or prevention of liver diseases” (JIANGSU ATOM BIOSCIENCE AND PHARMACEUTICAL CO., LTD., priority 2018, dated 2023) can be followed below.

Molecules are shown by their SMILES.

In this experiment the test system is zebrafish non-alcoholic fatty liver. Nature of the experiment: Fat reduction or elimination effect on thioacetamide-induced zebrafish non-alcoholic fatty liver (Oil Red O staining). It is filed as in vivo. The note with it: for The total optical density of liver fat: mean ± SE, n = 10. The protocol:
40 mM stock solution of test compounds 4, 5, 6, 7, 46, 67, 78, 85, 92 and 101 were prepared with DMSO, and stored in a refrigerator at −20° C. The positive control compound S-adenosylmethionine (SAM) was purchased from Aladdin Reagent (Shanghai) Co., Ltd., with the batch number F1523051, which was prepared into a 50 mM stock solution with DMSO. The control compound silymarin was purchased from Shanghai Dibai Biotechnology Co., Ltd., with the batch number EE09, which was prepared into a 40 mM stock solution with DMSO. Thioacetamide was purchased from Sigma-Aldrich, with the batch number BCBV3031, which wasprepared into a 1 M stock solution with DMSO. Oil Red O was purchased from Sigma-Aldrich, with the batch number SLBP5248V. 4% paraformaldehyde was purchased from Dingguo Biotechnology Co., Ltd., with the batch number 773001800. Propylene glycol was purchased from Sinopharm Chemical Reagent Co., Ltd., with the batch number 20170615.
The melanin allele mutant translucent Albino line zebrafish was reproduced in natural paired mating. The fish age was 3 days after fertilization, with 30 fish per experimental group.
The above zebrafish were raised in fish farming water at 28° C. (water quality: 200 mg instant sea salt was added to 1 L of reverse osmosis water, conductivity was 480-510 μS/cm; pH was 6.9-7.2; hardness was 53.7-71.6 mg/L CaCOs), the experimental animal use license number was: SYXK (Zhejiang) 2012-0171. Feeding management met the requirements of international AAALAC certification.
Three days after fertilization, the normal melanin allele mutant translucent Albino strain of zebrafish was randomly selected and placed in a six well plate with 30 fish per well (i.e. each experimental group), and then thioacetamide with the final concentration of 7 mM was used to treat zebrafish for 72 hours to establish the non-alcoholic fatty liver model.
The zebrafish were transferred to a six-well plate, with 30 fish per well (i.e., each experimental group) randomly. Non-alcoholic fatty liver model in zebrafish were induced by thioacetamide. 40 mM test compounds 4, 5, 6, 7, 46, 67, 78, 85, 92 and 101 were quantitatively transferred to a six-well plate, and diluted with water to the corresponding concentration. Test compounds 4, 5, 6 and 7 were formulated into two dose groups with final concentration of 100 μM and 200 μM, respectively; test compound 46 was formulated into a dose group with final concentration of 200 μM; test compounds 67, 78, 85, 92 and 101 were formulated into dose groups with a final concentration of 100 μM; 50 mM positive control SAM was formulated with water to a dose group with final concentration of 50 μM, and a 40 mM positive control silymarin was formulated with water to two concentration dose groups with final concentration of 100 μM and 200 μM. A normal control group (zebrafish treated with fish farming water) and a model control group were set at the same time, and the total volume of each well was 3 mL. Except for the normal control group, the other experimental groups were treated with thioacetamide for 72 hours and stained with Oil Red O. After staining, 10 zebrafish were randomly selected from each experimental group and photographed under a dissecting microscope, NIS-Elements D 3.10 advanced image processing software was used to perform image analysis and collect data, the total optical density (S) of zebrafish liver fat was statistically analyzed, and for the inhibitory effect of each experimental group on liver steatosis of zebrafishwas evaluated by the following formula, the results of statistical analysis were expressed as mean±SE: Inhibition rate of liver steatosis (%)=[S(model control group)−S(test compound group)]/[S(model control group)−S(normal control group)]×100%
Statistical analysis was performed using analysis of variance and Dunnett's T-test, and p<0.05 indicated a significant difference. […]

Usually inhibition stands for how much of the control response was suppressed. `COc1cc(C2Oc3cc(C4Oc5cc(O)cc(O)c5CC4O)cc(O)c3OC2CO)ccc1O` (stereo not drawn) [Compound 7, 2-{8-hydroxy-3-(4-hydroxy-3-methoxyphenyl)-2-hydroxymethyl-2,3-dihydrobenzo[b][1,4]dioxan-6-yl}chroman-3,5,7-triol]: under “100 μM”, the “Therapeutic effect on non-alcoholic fatty liver of zebrafish (in words)” value is on record as “significant therapeutic effects” and the “The total optical density of liver fat” value was determined as 17835 ± 351 Pixels. Further, for the setting “200 μM”, the “Therapeutic effect on zebrafish non-alcoholic fatty liver (in words)” value is reported as “significant therapeutic effect” and the “The total optical density of liver fat” value came out at 18090 ± 437 Pixels. Under “Danio rerio, 100 μM, read-out: Inhibition rate of liver steatosis”, the inhibition at 100 µM was determined as 98%. Besides, under “Danio rerio, 200 μM, read-out: Inhibition rate of liver steatosis”, the inhibition at 200 µM stood at 93%.
